US20230174649A1, “PHARMACEUTICAL COMPOSITIONS CONTAINING ANTI-CD47 ANTIBODIES” (I-MAB BIOPHARMA US LIMITED, priority 2020, published 2023)
Several values for one entry are separate records, joined by “and”; a condition that tells them apart may be missing. Equal entries are not always repeated.

Columns and labels:
Type in all cases: cell-based, Human
[1] = tested on: macrophages; test: Macrophage Viability Assay (CellTiter-Glo); conditions: for Macrophage viability (CellTiter-Glo Luminescent Cell Viability Assay): 16 hours, three replicate lines
Procedure: Then, the monocytes isolated by MACS were subsequently cultured in fresh complete medium supplemented with recombinant human granulocyte-macrophage colony-stimulating factor GM-CSF (50 ng/ml) and human recombinant IL-4 (35 ng/ml) to activate differentiated macrophages. After 6 days of culture (on day 7), cells were harvested, pooled together and counted for next use.
The cells from Example 2 were plated into a 96-well flat bottom plate at a density of 0.05×10^6 cells/well. After 2 hours of incubation, the macrophages were well attached to the plate. Then selected small molecule therapeutic agents were added to the well and cocultured for 16 hours. On day 8, macrophage viability was assessed by CellTiter-Glo® Luminescent Cell Viability Assay, according to the manufacture's instruction.

[2] = tested on: Toledo Cells; test: FACS-based phagocytosis assay, macrophages cocultured with Toledo cells
Procedure: FACS-based phagocytosis assays were performed to evaluate the phagocytic abilities of macrophages.
Toledo Cells (a tumor cell line, as a target) were labelled with CellTrace™ Far Red and plated into 96-well plate at a density of 0.15×10^6 cells/well for 12 hours. The Macrophages were prepared as discussed above and then labelled with CellTrace Violet. Next, the macrophages were added into the plate as an effector at an effector:target (Toledo) ratio of 1:3, giving a final density of macrophages at 0.05×10^6 cells/well. Macrophages and tumor cells were cocultured for 2-6 h at 37° C. in the presence of the indicated treatments (small molecule therapeutic agents, CD47 antibody, CD20 antibody or combinations). The incubation time depending on the phagocytosis rate, expecting phagocytosis of 5-20% cells.
Then, cells were acquired and data were analyzed.

[3] = tested on: Calreticulin; test: FACS analysis of expression level of calreticulin on tumor cell surface; conditions: Toledo cells; for Mean Fluorescence Intensity (MFI) Calreticulin: 12 hours
Procedure: (§1) For FACS analysis, on the day of analysis (day 1), Toledo cells were seeded into 96 well plate and cultured at a density of 0.2×10^6 cells/well. Then the cells were treated with the selected small molecule therapeutic agents for 12 hours.
(§2) On day 2, cells were harvested, washed twice and then re-suspended in 100 uL FACS buffer subject to FACS analysis. For detection of the expression of calreticulin and CD47, cells were incubated with anti-calreticulin antibody and commercially available anti-CD47 antibody (BD Biosciences, Catalog number: 561249) in dark at 4° C. for 30 mins.
(§3) Then, the cells were subject to FACS analysis. Data was acquired and analyzed.

[4] = tested on: CD47; test: FACS analysis of expression level of CD47 on tumor cell surface; conditions: Toledo cells; for Mean Fluorescence Intensity (MFI) CD47: 12 hours
Procedure: as §1, §2, §3

Cn1c(CCCC(=O)O)nc2cc(N(CCCl)CCCl)ccc21 [Bendamustine]
Macrophage viability (CellTiter-Glo Luminescent Cell Viability Assay) ([1]; Cpd 0.002 uM): 6292 and 6220 and 5908
Macrophage viability (CellTiter-Glo Luminescent Cell Viability Assay) ([1]; Cpd 0.008 uM): 6248 and 6356 and 6028
Macrophage viability (CellTiter-Glo Luminescent Cell Viability Assay) ([1]; Cpd 0.04 uM): 6248 and 6124 and 5788
Macrophage viability (CellTiter-Glo Luminescent Cell Viability Assay) ([1]; Cpd 0.2 uM): 6320 and 6664 and 5768
Macrophage viability (CellTiter-Glo Luminescent Cell Viability Assay) ([1]; Cpd 1 uM): 6220 and 6200 and 5436
Macrophage viability (CellTiter-Glo Luminescent Cell Viability Assay) ([1]; Cpd 5 uM): 6424 and 6308 and 5064
Macrophage viability (CellTiter-Glo Luminescent Cell Viability Assay) ([1]; Cpd 25 uM): 5884 and 5724 and 4340
Macrophage viability (CellTiter-Glo Luminescent Cell Viability Assay) ([1]; Cpd 50 uM): 5500 and 5736 and 4112
toxicity to macrophages ([1]; dose as high as 50 μM): showed toxicity
toxicity to macrophages ([1]; dose lower than 10 μM): little toxic
macrophage phagocytosis (untreated = 1.00) ([2]; Cpd 0.0016 uM, T4J = 0, R = 0): 1.06
macrophage phagocytosis (untreated = 1.00) ([2]; Cpd 0.0016 uM, T4J = 0, R = 0.01 ug/ml): 1.58
macrophage phagocytosis (untreated = 1.00) ([2]; Cpd 0.0016 uM, T4J = 0.1 ug/ml, R = 0): 2.53
macrophage phagocytosis (untreated = 1.00) ([2]; Cpd 0.0016 uM, T4J = 0.1 ug/ml, R = 0.01 ug/ml): 3.29
macrophage phagocytosis (untreated = 1.00) ([2]; Cpd 0.008 uM, T4J = 0, R = 0): 1.00
macrophage phagocytosis (untreated = 1.00) ([2]; Cpd 0.008 uM, T4J = 0, R = 0.01 ug/ml): 1.52
macrophage phagocytosis (untreated = 1.00) ([2]; Cpd 0.008 uM, T4J = 0.1 ug/ml, R = 0): 2.67
macrophage phagocytosis (untreated = 1.00) ([2]; Cpd 0.008 uM, T4J = 0.1 ug/ml, R = 0.01 ug/ml): 3.26
macrophage phagocytosis (untreated = 1.00) ([2]; Cpd 0.04 uM, T4J = 0, R = 0): 0.98
macrophage phagocytosis (untreated = 1.00) ([2]; Cpd 0.04 uM, T4J = 0, R = 0.01 ug/ml): 1.53
macrophage phagocytosis (untreated = 1.00) ([2]; Cpd 0.04 uM, T4J = 0.1 ug/ml, R = 0): 2.57
macrophage phagocytosis (untreated = 1.00) ([2]; Cpd 0.04 uM, T4J = 0.1 ug/ml, R = 0.01 ug/ml): 3.19
macrophage phagocytosis (untreated = 1.00) ([2]; Cpd 0.2 uM, T4J = 0, R = 0): 0.96
macrophage phagocytosis (untreated = 1.00) ([2]; Cpd 0.2 uM, T4J = 0, R = 0.01 ug/ml): 1.41
macrophage phagocytosis (untreated = 1.00) ([2]; Cpd 0.2 uM, T4J = 0.1 ug/ml, R = 0): 2.51
macrophage phagocytosis (untreated = 1.00) ([2]; Cpd 0.2 uM, T4J = 0.1 ug/ml, R = 0.01 ug/ml): 3.10
macrophage phagocytosis (untreated = 1.00) ([2]; Cpd 1 uM, T4J = 0, R = 0): 1.03
macrophage phagocytosis (untreated = 1.00) ([2]; Cpd 1 uM, T4J = 0, R = 0.01 ug/ml): 1.46
macrophage phagocytosis (untreated = 1.00) ([2]; Cpd 1 uM, T4J = 0.1 ug/ml, R = 0): 2.47
macrophage phagocytosis (untreated = 1.00) ([2]; Cpd 1 uM, T4J = 0.1 ug/ml, R = 0.01 ug/ml): 3.05
phagocytic ability of macrophages ([2]; triple combination: T4J, Rituximab and the small molecule): does not show the synergistic effects
Mean Fluorescence Intensity (MFI) Calreticulin ([3]; 0.008 uM): 68.6
Mean Fluorescence Intensity (MFI) Calreticulin ([3]; 0.04 uM): 70.1
Mean Fluorescence Intensity (MFI) Calreticulin ([3]; 0.2 uM): 70.2
Mean Fluorescence Intensity (MFI) Calreticulin ([3]; 1 uM): 76.3
Mean Fluorescence Intensity (MFI) Calreticulin ([3]; 5 uM): 86.2
Mean Fluorescence Intensity (MFI) CD47 ([4]; 0.008 uM): 9132
Mean Fluorescence Intensity (MFI) CD47 ([4]; 0.04 uM): 8684
Mean Fluorescence Intensity (MFI) CD47 ([4]; 0.2 uM): 8687
Mean Fluorescence Intensity (MFI) CD47 ([4]; 1 uM): 8319
Mean Fluorescence Intensity (MFI) CD47 ([4]; 5 uM): 9192

COc1c(OCCCN2CCOCC2)ccc2c1N=C(NC(=O)c1cnc(N)nc1)N1CCN=C21 [Copanlisib]
Macrophage viability (CellTiter-Glo Luminescent Cell Viability Assay) ([1]; Cpd 0.002 uM): 5856 and 5928 and 6000
Macrophage viability (CellTiter-Glo Luminescent Cell Viability Assay) ([1]; Cpd 0.008 uM): 5272 and 4772 and 5388
Macrophage viability (CellTiter-Glo Luminescent Cell Viability Assay) ([1]; Cpd 0.04 uM): 4856 and 5120 and 4872
Macrophage viability (CellTiter-Glo Luminescent Cell Viability Assay) ([1]; Cpd 0.2 uM): 4572 (2×) and 4928
Macrophage viability (CellTiter-Glo Luminescent Cell Viability Assay) ([1]; Cpd 1 uM): 4156 and 4492 and 4368
Macrophage viability (CellTiter-Glo Luminescent Cell Viability Assay) ([1]; Cpd 5 uM): 3780 and 4352 and 4196
Macrophage viability (CellTiter-Glo Luminescent Cell Viability Assay) ([1]; Cpd 25 uM): 4108 and 4176 and 4248
Macrophage viability (CellTiter-Glo Luminescent Cell Viability Assay) ([1]; Cpd 50 uM): 2748 and 3032 and 3028
toxicity to macrophages ([1]; dose of 0.1-50 μM): obvious toxicity
effect on expression level of Calreticulin [3]: only slightly increased
Mean Fluorescence Intensity (MFI) Calreticulin ([3]; 0.008 uM): 69.8
Mean Fluorescence Intensity (MFI) Calreticulin ([3]; 0.04 uM): 77
Mean Fluorescence Intensity (MFI) Calreticulin ([3]; 0.2 uM): 79.4
Mean Fluorescence Intensity (MFI) Calreticulin ([3]; 1 uM): 106
Mean Fluorescence Intensity (MFI) Calreticulin ([3]; 5 uM): 142
effect on CD47 expression level [4]: only slightly inhibited
Mean Fluorescence Intensity (MFI) CD47 ([4]; 0.008 uM): 8024
Mean Fluorescence Intensity (MFI) CD47 ([4]; 0.04 uM): 8243
Mean Fluorescence Intensity (MFI) CD47 ([4]; 0.2 uM): 7844
Mean Fluorescence Intensity (MFI) CD47 ([4]; 1 uM): 7097
Mean Fluorescence Intensity (MFI) CD47 ([4]; 5 uM): 6803
